Data from patent publication US4766148A, “Biphenylylpropionic acid derivative and pharmaceutical composition containing the same” (priority 1983, dated 1988).
Like-named read-outs stand apart in the source and are kept apart here.

Experiments:
in vivo = settings: mouse, po
Method: (§3) Eight male SLC-ddY mice 5 week old weighing 25 to 30 g. were used as one group. The compound to be tested was orally administered using a stomach tube. The animals were kept under observation for 2 weeks. The numbers of dead animals were counted and the LD50 values were calculated by the method of Litchfield Wilcoxon.

[1] = Gastric ulceration (gastric irritation test); type: in vivo, Wistar male rats; settings: rat, in vivo, po
Method: (§1) Five Wistar male rats weighing about 150 g. were used as one group. The rats were fasted for 24 hours before the test.
(§2) Six hours after orally administration of the compounds to be tested, there was observed an existence of gastric ulcer by the method of Okabe et al (Ohyoyakuri, 16, 241 to 247 (1978)). The UD50 values were calculated from the ulcer incidence of gastric ulcer by the method of Litchfield-Wilcoxon.

[2] = tested on: carrageenan-induced edema; assay: Inhibitory effect on carrageenan-induced edema; type: in vivo, Wistar male rats; settings: Rattus norvegicus
Method: Five Wistar male rats weighing about 150 g. were used as one group. A 1% dispersion of carrageenan was injected intracutaneously into the foot pad of the right hind foot in a dose of 0.1 ml./rat. The compounds to be tested were orally administered to the rats fasted for 15 hours one hour before the carrageenan injection, or intravenously administered 2 hours […] the carrageenan injection. The volume of the foot subjected to the injection was measured by a mercury plethysmography 3 hours after the carrageenan injection on the test by oral route or 2 hours after the carrageenan injection on the test by intravenous route, and the carrageenan-induced edema was estimated from the obtained measurments.

mice = assay: Acute toxicity; settings: 20160 min; for LD50: Table 5, male SLC-ddY mice, orally, 2 weeks observation, Litchfield Wilcoxon
Method: as §3

gastric ulcer = assay: Gastric ulceration (gastric irritation test); type: in vivo, Wistar male rats; settings: for UD50 (50% ulcerative dose): rat, in vivo, po; for UD50, gastric ulcer: Table 3, Wistar male rats, orally, six hours after administration, Litchfield-Wilcoxon
Method: as §1, §2

in vitro = settings: human, plasma
Method: Each reaction mixture was incubated at 37° C. for one hour
The free FP formed by esterase in the plasma was extracted with benzene. After treating the extract with N,O-bis(trimethylsilylacetamide) for trimethylsilylation, the obtained material was determined by gas-liquid chromatography.

[3] = Hydrolysis of FP derivatives in rat plasma; type: in vitro ADME; settings: Table 4; rat plasma (Compound No. 10), 37° C., one hour, amount corresponding to 50 μg. of FP per 1 ml.; read-out: Hydrolyzing rate
[4] = Table 3, Wistar male rats, orally, six hours after administration, Litchfield-Wilcoxon, read-out: UD50, gastric ulcer
[5] = iv, 2 h, read-out: ED50, carrageenan-induced edema
[6] = iv, read-out: ED50 (50% effective dose), carrageenan-induced edema inhibition
[7] = po, read-out: ED50 (50% effective dose), carrageenan-induced edema inhibition
[8] = po, read-out: ED50, carrageenan-induced edema
[9] = iv, Table 1, rats, i.v., read-out: ED50 (50% effective dose), carrageenan-induced edema inhibition
[10] = iv, Table 2, Wistar male rats, i.v. 2 hours after carrageenan, read-out: ED50, carrageenan-induced edema
[11] = po, Table 1, rats, p.o., read-out: ED50 (50% effective dose), carrageenan-induced edema inhibition
[12] = po, Table 2, Wistar male rats, p.o. one hour before carrageenan, measured 3 hours after carrageenan, read-out: ED50, carrageenan-induced edema

Row | SMILES | LD50 at 336 h (in vivo) | TD50 at 6 h [1, 4] | ED50 [2, 5] | ED50 [2, 6] | ED50 [2, 7] | ED50 [2, 8] | TD50 at 6 h [1] | ED50 [2, 9] | ED50 [2, 10] | ED50 [2, 11] | ED50 [2, 12] | also measured
1 | CC(=O)OC(C)OC(=O)C(C)c1ccc(-c2ccccc2)c(F)c1 (centres unmarked) [Compound 1, 1-(Acetoxy)ethyl 2-(2-fluoro-4-biphenylyl)propionate] | 650 mg/kg | 2.5 mg/kg | 0.05 mg/kg | 0.05 mg/kg | 0.5 mg/kg | 0.5 mg/kg | – | – | – | – | – | –
2 | CCC(=O)OC(C)OC(=O)C(C)c1ccc(-c2ccccc2)c(F)c1 (centres unmarked) [Compound 2, 1-(Propionyloxy)ethyl 2-(2-fluoro-4-biphenylyl)propionate] | 800 mg/kg | 3 mg/kg | 0.06 mg/kg | 0.06 mg/kg | 0.7 mg/kg | 0.7 mg/kg | – | – | – | – | – | –
3 | CC(OC(=O)C(C)C)OC(=O)C(C)c1ccc(-c2ccccc2)c(F)c1 (centres unmarked) [Compound 3, 1-(isobutyryloxy)ethyl 2-(2-fluoro-4-biphenylyl)propionate] | 880 mg/kg | 5 mg/kg | 0.1 mg/kg | 0.1 mg/kg | 1.5 mg/kg | 1.5 mg/kg | – | – | – | – | – | –
4 | CC(OC(=O)C(C)c1ccc(-c2ccccc2)c(F)c1)OC(=O)C(C)(C)C (centres unmarked) [Compound 4, 1-(pivaloyloxy)ethyl 2-(2-fluoro-4-biphenylyl)propionate] | > 1000 mg/kg | – | – | – | – | – | 10 mg/kg | 0.6 mg/kg | 0.6 mg/kg | 2.5 mg/kg | 2.5 mg/kg | LD50 (50% lethal dose) (mice; mouse, in vivo, po): > 1000 mg/kg
5 | CCCCCCCCCCCCCCCC(=O)OC(C)OC(=O)C(C)c1ccc(-c2ccccc2)c(F)c1 (centres unmarked) [Compound 5, 1-(palmitoyloxy)ethyl 2-(2-fluoro-4-biphenylyl)propionate] | > 1000 mg/kg | – | – | – | – | – | > 10 mg/kg | > 5 mg/kg | > 5 mg/kg | > 5 mg/kg | > 5 mg/kg | LD50 (50% lethal dose) (mice; mouse, in vivo, po): > 1000 mg/kg; UD50 (50% ulcerative dose) (gastric ulcer; 6 h): > 10.0 mg/kg
6 | CCC(OC(C)=O)OC(=O)C(C)c1ccc(-c2ccccc2)c(F)c1 (centres unmarked) [Compound 6, 1-(Acetoxy)propyl 2-(2-fluoro-4-biphenylyl)propionate] | 900 mg/kg | 5 mg/kg | 0.1 mg/kg | 0.1 mg/kg | 1.5 mg/kg | 1.5 mg/kg | – | – | – | – | – | –
7 | C/C=C/C(=O)OC(C)OC(=O)C(C)c1ccc(-c2ccccc2)c(F)c1 (centres unmarked) [Compound 7, 1-(crotonoyloxy)ethyl 2-(2-fluoro-4-biphenylyl)propionate] | 800 mg/kg | 4 mg/kg | 0.08 mg/kg | 0.08 mg/kg | 0.9 mg/kg | 0.9 mg/kg | – | – | – | – | – | –
8 | CC(C)=CC(=O)OC(C)OC(=O)C(C)c1ccc(-c2ccccc2)c(F)c1 (centres unmarked) [Compound 8, [1-(3,3-dimethylacryloyloxy)ethyl]2-(2-fluoro-4-biphenylyl)propionate] | 1000 mg/kg | – | – | – | – | – | 7 mg/kg | 0.3 mg/kg | 0.3 mg/kg | 2.5 mg/kg | 2.5 mg/kg | –
9 | CC=CC=CC(=O)OC(C)OC(=O)C(C)c1ccc(-c2ccccc2)c(F)c1 (centres unmarked) [Compound 9, [1-(2,4-Hexadienoyloxy)ethyl]2-(2-fluoro-4-biphenylyl) propionate] | 1000 mg/kg | – | – | – | – | – | 7 mg/kg | 0.3 mg/kg | 0.3 mg/kg | 2 mg/kg | 2 mg/kg | metabolised at 1 h (in vitro): 20.4%
10 | CC(C(=O)OC1C(=O)OCC1(C)C)c1ccc(-c2ccccc2)c(F)c1 (centres unmarked) [Compound 10, 3,3-Dimethyl-2-[2-(2-fluoro-4-biphenylyl)propionyloxy]-γ-butyrolactone] | 670 mg/kg | 2.5 mg/kg | 0.05 mg/kg | 0.05 mg/kg | 0.5 mg/kg | 0.5 mg/kg | – | – | – | – | – | metabolised at 1 h [3]: 72.3%
11 | CC(C(=O)O)c1ccc(-c2ccccc2)c(F)c1 (centres unmarked) [FP, 2-(2-fluoro-4-biphenylyl)-propionic acid] | – | – | – | – | – | – | – | – | – | – | – | LD50 (50% lethal dose) (mice; Table 1, mice, p.o.): 440 mg/kg; LD50 (mice): 440 mg/kg; UD50, gastric ulcer (gastric ulcer; 360 min): 1.0 mg/kg
12 | COc1ccc2c(c1)c(CC(=O)OCC(=O)O)c(C)n2C(=O)c1ccc(Cl)cc1 [acemethacin] | – | – | – | – | – | – | – | – | – | – | – | LD50 (50% lethal dose) (mice; Table 1, mice, p.o.): 18.0 mg/kg; LD50 (mice): 18.0 mg/kg; UD50 (50% ulcerative dose) (gastric ulcer; 360 min): 17.5 mg/kg
13 | COc1ccc2c(c1)c(CC(=O)O)c(C)n2C(=O)c1ccc(Cl)cc1 [indomethacin] | – | – | – | – | – | – | – | – | – | – | – | LD50 (50% lethal dose) (mice; Table 1, mice, p.o.): 14.0 mg/kg; LD50 (mice): 14.0 mg/kg; UD50, gastric ulcer (gastric ulcer; 360 min): 5.0 mg/kg
